Test results taken from US20210032257A1, “(E)-1-(4-(DIMETHYLAMINO)BUT-2-ENOYL)PYRROLIDIN-3-YL 4-((3-ISOPROPYL-5-METHYLPYRAZOLO[1,5-A]PYRIMIDIN-7-YL)AMINO)PIPERIDINE-1-CARBOXYLATE FOR INHIBITING CDK7” (Eli Lilly and Company, priority 2017, published 2021).
pIC50: −log10 of the molar value.

What was measured:
Test in all cases: Biomarker study proliferation (CellTiter-Glo)
Format in all cases: cell-based
[1] = test system: EGL1
Summary of the method: (§1)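 7-day growth assay: 5000 cells/well, overnight attachment, 10-pt 1:3 dose series diluted via OPTIMEM + 10% FBS. Staurosporine 5 μM final = max inhibition. Readout CellTiter-Glo luminescence after 15 min RT.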

[2] = test system: SH10TC
Summary of the method: as §1

[3] = test system: HS294T
Summary of the method: as §1

[4] = test system: HCT8
Summary of the method: as §1

[5] = test system: MDST8
Summary of the method: as §1

[6] = test system: MKN7
Summary of the method: as §1

[7] = test system: BT20
Summary of the method: as §1

[8] = test system: NCIH1666
Summary of the method: as §1

[9] = test system: M14
Summary of the method: as §1

[10] = test system: NUGC4
Summary of the method: as §1

[11] = test system: T84
Summary of the method: as §1

[12] = test system: OVCAR5
Summary of the method: as §1

[13] = test system: MKN1
Summary of the method: as §1

[14] = test system: LN229
Summary of the method: as §1

[15] = test system: SNU739
Summary of the method: as §1

[16] = test system: MHCC97H
Summary of the method: as §1

[17] = test system: SNU398
Summary of the method: as §1

[18] = test system: NCIH596
Summary of the method: as §1

[19] = test system: CORL311
Summary of the method: as §1

[20] = 168 h, read-out: Anti-proliferation effect IC50

Cc1cc(NC2CCN(C(=O)O[C@H]3CCN(C(=O)/C=C/CN(C)C)C3)CC2)n2ncc(C(C)C)c2n1 [Example 1, [(3S)-1-[(E)-4-(dimethylamino)but-2-enoyl]pyrrolidin-3-yl] 4-[(3-isopropyl-5-methyl-pyrazolo[1,5-a]pyrimidin-7-yl)amino]piperidine-1-carboxylate]
pIC50 [1, 20]: 7.39
Anti-proliferation effect % Inh. ([1]; EGL1, 7 days): 95%
Anti-proliferation effect Outcome ([1]; EGL1, 7 days): Cytotoxic (cytotoxic (IC50<1 μM and % inhibition ≥70%))
Anti-proliferation effect % Inh. ([2]; SH10TC, STOMACH, 7 days): 58%
Anti-proliferation effect Outcome ([2]; SH10TC, STOMACH, 7 days): Cytostatic (cytostatic (IC50<1 μM and % inhibition <70%))
pIC50 ([2]; SH-10-TC, 168 h, read-out: Anti-proliferation effect IC50): 6.83
Anti-proliferation effect % Inh. ([3]; HS294T, SKIN, 7 days): 84%
Anti-proliferation effect Outcome ([3]; HS294T, SKIN, 7 days): Cytotoxic (cytotoxic (IC50<1 μM and % inhibition ≥70%))
pIC50 ([3]; Homo sapiens, Hs 294T, 168 h, read-out: Anti-proliferation effect IC50): 7.70
Anti-proliferation effect % Inh. ([4]; HCT8, INTESTINE, 7 days): 3%
Anti-proliferation effect Outcome ([4]; HCT8, INTESTINE, 7 days): Cytostatic (cytostatic (IC50<1 μM and % inhibition <70%))
pIC50 ([4]; Homo sapiens, HCT-8, 168 h, read-out: Anti-proliferation effect IC50): 6.01
pIC50 ([5]; MDST8, 168 h, read-out: Anti-proliferation effect IC50): 7.31
Anti-proliferation effect % Inh. ([5]; MDST8, INTESTINE, 7 days): 88%
Anti-proliferation effect Outcome ([5]; MDST8, INTESTINE, 7 days): Cytotoxic (cytotoxic (IC50<1 μM and % inhibition ≥70%))
pIC50 ([6]; Homo sapiens, MKN-7, 168 h, read-out: Anti-proliferation effect IC50): < 5.00
Anti-proliferation effect % Inh. ([6]; MKN7, STOMACH, 7 days): 39%
Anti-proliferation effect Outcome ([6]; MKN7, STOMACH, 7 days): Insensitive (insensitive (IC50≥1 μM))
Anti-proliferation effect % Inh. ([7]; BT20, BREAST, 7 days): 45%
Anti-proliferation effect Outcome ([7]; BT20, BREAST, 7 days): Cytostatic (cytostatic (IC50<1 μM and % inhibition <70%))
pIC50 ([7]; Homo sapiens, BT-20, 168 h, read-out: Anti-proliferation effect IC50): 6.43
pIC50 ([8]; Homo sapiens, NCI-H1666, 168 h, read-out: Anti-proliferation effect IC50): 6.79
Anti-proliferation effect % Inh. ([8]; NCIH1666, LUNG, 7 days): 59%
Anti-proliferation effect Outcome ([8]; NCIH1666, LUNG, 7 days): Cytostatic (cytostatic (IC50<1 μM and % inhibition <70%))
pIC50 ([9]; Homo sapiens, M14, 168 h, read-out: Anti-proliferation effect IC50): 7.49
Anti-proliferation effect % Inh. ([9]; M14, SKIN, 7 days): 85%
Anti-proliferation effect Outcome ([9]; M14, SKIN, 7 days): Cytotoxic (cytotoxic (IC50<1 μM and % inhibition ≥70%))
pIC50 ([10]; Homo sapiens, NUGC-4, 168 h, read-out: Anti-proliferation effect IC50): 7.72
Anti-proliferation effect % Inh. ([10]; NUGC4, STOMACH, 7 days): 83%
Anti-proliferation effect Outcome ([10]; NUGC4, STOMACH, 7 days): Cytotoxic (cytotoxic (IC50<1 μM and % inhibition ≥70%))
pIC50 ([11]; Homo sapiens, T84, 168 h, read-out: Anti-proliferation effect IC50): 6.51
Anti-proliferation effect % Inh. ([11]; T84, INTESTINE, 7 days): 61%
Anti-proliferation effect Outcome ([11]; T84, INTESTINE, 7 days): Cytostatic (cytostatic (IC50<1 μM and % inhibition <70%))
pIC50 ([12]; Homo sapiens, OVCAR-5, 168 h, read-out: Anti-proliferation effect IC50): 7.07
Anti-proliferation effect % Inh. ([12]; OVCAR5, OVARY, 7 days): 74%
Anti-proliferation effect Outcome ([12]; OVCAR5, OVARY, 7 days): Cytotoxic (cytotoxic (IC50<1 μM and % inhibition ≥70%))
pIC50 ([13]; Homo sapiens, MKN-1, 168 h, read-out: Anti-proliferation effect IC50): 7.64
Anti-proliferation effect % Inh. ([13]; MKN1, STOMACH, 7 days): 80%
Anti-proliferation effect Outcome ([13]; MKN1, STOMACH, 7 days): Cytotoxic (cytotoxic (IC50<1 μM and % inhibition ≥70%))
pIC50 ([14]; Homo sapiens, LN-229, 168 h, read-out: Anti-proliferation effect IC50): 7.44
Anti-proliferation effect % Inh. ([14]; LN229, CNS, 7 days): 63%
Anti-proliferation effect Outcome ([14]; LN229, CNS, 7 days): Cytostatic (cytostatic (IC50<1 μM and % inhibition <70%))
Anti-proliferation effect % Inh. ([15]; SNU739, LIVER, 7 days): 47%
Anti-proliferation effect Outcome ([15]; SNU739, LIVER, 7 days): Insensitive (insensitive (IC50≥1 μM))
pIC50 ([15]; SNU-739, 168 h, read-out: Anti-proliferation effect IC50): < 5.00
pIC50 ([16]; Homo sapiens, 168 h, read-out: Anti-proliferation effect IC50): 6.61
Anti-proliferation effect % Inh. ([16]; LIVER, 7 days): 59%
Anti-proliferation effect Outcome ([16]; LIVER, 7 days): Cytostatic (cytostatic (IC50<1 μM and % inhibition <70%))
pIC50 ([17]; Homo sapiens, SNU-398, 168 h, read-out: Anti-proliferation effect IC50): 7.68
Anti-proliferation effect % Inh. ([17]; SNU398, LIVER, 7 days): 85%
Anti-proliferation effect Outcome ([17]; SNU398, LIVER, 7 days): Cytotoxic (cytotoxic (IC50<1 μM and % inhibition ≥70%))
pIC50 ([18]; Homo sapiens, NCI-H596, 168 h, read-out: Anti-proliferation effect IC50): 6.04
Anti-proliferation effect % Inh. ([18]; NCIH596, LUNG, 7 days): 46%
Anti-proliferation effect Outcome ([18]; NCIH596, LUNG, 7 days): Cytostatic (cytostatic (IC50<1 μM and % inhibition <70%))
pIC50 [19, 20]: 7.02
Anti-proliferation effect % Inh. ([19]; CORL311, LUNG, 7 days): 75%
Anti-proliferation effect Outcome ([19]; CORL311, LUNG, 7 days): Cytotoxic (cytotoxic (IC50<1 μM and % inhibition ≥70%))
